# Data as given in patent US20260069606A1, “Oxidative Stress and Diabetes Treatment with Cobinamide” (The Regents of the University of California, priority 2022, published 2026).
# Columns and labels:
# [1] = test system: D. melanogaster; assay: Survival of fruit flies during paraquat poisoning; assay type: in vivo; details: 20 mM paraquat with 0.8 mM drug in food, over 7 d
# Procedure: The number of live flies was counted each day for 7 d. The experiment was repeated seven times, for a total of 70 flies per condition. The percent surviving flies was calculated; error bars represent standard deviations and are shown in one direction only for sake of clarity. […] Chi, cobinamide in Panel A and histidyl-cobinamide in Panels B-K; Imp, imisopasem; MnTP, MnTBAP; CbL, cobalamin; DNPH, 2,4-dinitrophenylhydrazine; ND, non-diabetic; D, diabetic; Veh, vehicle.
# To test cobinamide in a whole animal, D. melanogaster was selected for initial studies, and oxidative stressed was increased in the files by administering paraquat in their food. Cobinamide was again compared to imisopasem, MnTBAP, and hydroxocobalamin, all administered in food.
# [2] = Reaction with hydrogen peroxide, H2O2-specific electrode; assay type: biochemical
# Procedure: FIGS. 2A-2F. Cobinamide Functions as a Catalase Mimetic and Reacts with Peroxynitrite. […]. Hydrogen peroxide (final concentration 50 μM) was added to solutions containing increasing concentrations of Chi(III) (FIG. 2A) or Chi(II) (FIG. 2C), and the H2O2 concentration was measured over time using a H2O2-specific electrode. The log of the velocity in the presence of Chi(III) (FIG. 2B) or Chi(II) (v) (FIG. 2D) over the velocity in their absence (Vo) is plotted against the log of their concentrations at 20 min over their concentrations at zero time. These plots yield a reaction order with respect to Chi(III) and Cbi(II) of 0.7. The experiments were repeated three times with similar results. Dotted lines show 95% confidence intervals. FIG. 2E. […] The Chi(III) spectra are slightly different from those shown in FIG. 1G because at pH 11, dihydroxo-cobinamide is generated, whereas at pH 7.1, aquohydroxo-cobinamide is the predominant species. The spectra of aquohydroxo- and dihydroxo-cobinamide are known to be different^65. FIG. 2F. Varying concentrations of Chi(II) from 1 to 10 μM were mixed with 10 μM peroxynitrite in a stopped-flow instrument, and absorption at 315 nm was monitored for 0.5 sec. The results for 5 μM Cbi(II) are shown; red circles are the observed data, and the black line is a two-phase non-linear regression curve generated by Prism 7.04 software. […] The experiment was repeated three times with similar results. Dotted lines show 95% confidence intervals.
# Table I. Reaction Rates of Cobinamide (Cbi), Cobalamin, Imisopasem, and MnTBAP with Reactive Oxygen and Nitrogen Species. Reactions of the indicated compounds with O2·^−, ONOO^−, and ·NO are all second order reactions with rate constants in units of M^−1 s^−1. The reactions of Cbi(III) and Cbi(II) with H2O2 are third order with rate constant units of M^−2 s^−1. Chi(II) and cobalamin(II) bind nitric oxide, so a Ka is shown in units of M^−1. For the new data presented in this study, rate constants were measured for O2·^− using a hypoxanthine-xanthine oxidase-cytochrome c system, for H2O2 using a H2O2-specific sensor (World Precision Instruments), and for ONOO^− using a stopped-flow instrument. Published rate constants for Cu/Zn and Mn superoxide dismutases (SOD) and catalase are shown for reference.^a,b Letters and numbers in parenthesis refer to footnotes and references, respectively.
# Both Cbi(III) and Chi(II) react with H2O2, and the reaction was essentially first order with respect to Cbi(III) and Cbi(II) (FIG. 2A-D), and second order with respect to H2O2 for both cobinamide species. […]
structure (smiles),measurement,setting,value
"C/C1=C2/[N-][C@H]([C@H](CC(N)=O)[C@@]2(C)CCC(=O)NC[C@@H](C)O)[C@]2(C)N=C(/C(C)=C3N=C(/C=C4N=C1[C@@H](CCC(N)=O)C\4(C)C)[C@@H](CCC(N)=O)[C@]\3(C)CC(N)=O)[C@@H](CCC(N)=O)[C@]2(C)CC(N)=O.[Co+3] [cobinamide, aquohydroxo-cobinamide]",Mortality of paraquat-exposed flies,[1],< 30%
same,Reaction order with respect to the cobinamide species in the reaction with H2O2,[2]; 50 μM H2O2,0.7
same,"Apparent rate constant, reaction with hydrogen peroxide (H2O2)","[2]; third order, H2O2-specific sensor, new data of this study, listed as Cbi(III)",8.0 × 10^2 M^−2 s^−1
